Data as given in patent US9750247B2, “Nematotoxic composition of synergistic effect, use of a nematotoxic composition of synergistic effect” (EMPRESA BRASILEIRA DE PESQUISA AGROPECUARIA—EMBRAPA, priority 2012, dated 2017).

How the values were obtained:
[1] = tested on: second-stage juveniles (J2) of M. incognita; assay: Bioassay against second-stage juveniles (J2) of M. incognita, 48 hours' exposure (paralysis); assay type: in vivo; settings: for nematotoxic effect on J2 / % paralyzed nematodes / J2 paralyzed / % of paralyzed nematodes: 48 hours' exposure; for % of paralyzed nematodes: 0.25 g/L (of each compound)
Protocol: (§1) FIG. 9—(A) Bioassay showing the effect of the commercial compounds on second-stage juveniles of M. incognita after 48 hours' exposure. 1—Control dH20, 2—DECE, 3—Glycose 10%, 4—Glycose 20%, 5—D-Pinitol (80 ug), 6—D-Pinitol (150 ug), 7—L-canavanina (80 ug), 8—L-canavanina (150 ug), 9—palmitic acid (80 ug), 10—palmitic acid (150 ug), 11—citric acid (80 ug), 12—citric acid (150 ug), 13—malic acid (80 ug), 14—malic acid (150 ug), 15—cis-aconitic acid (80 ug), 16—cis-anonitic acid (150 ug), 17—trans-anonitic acid (80 ug), 18—trans-aconitic acid (150 ug), 19—50 mM Tris/HCl pH 8, 20—50 mM acetic acid pH 5, 21—L-phenylamine (80 ug), 22—L-phenylamine (150 ug), 23—L-methionine (80 ug), 24—L-methionine (150 ug), 25—L-tryptophan (80 ug), 26—L-tryptophan (150 ug), 27—S-carboxymethylcistein (80 ug), 28—S-carboxymethylcisteine (150 ug), 29—Zantotoxine (80 ug), 30—Zantotoxine (150 ug), and 31—Glucose 20%+L-canavanine (15) ug). B—Evaluation of the effect of the different commercial compounds after the recovery assay using distilled water.
(§2) FIG. 10—(A) Bioassay showing the effect of the commercial compounds and their compositions on second-stage juveniles of M. incognita (J1) after 48 hours' exposure. C+ positive control (extract); C−: negative control (water); 2: palmitic acid; 3: S-carboxymethylcisteine; 4: trans-aconitic acid; 5: glucose. […] (B)—Evaluation of the effect of the different commercial compounds and their compositions after the recovery assay using distilled water. C+ positive control (extract); 2: palmitic acid; 3: S-carboxymethylcisteine; 4: trans-aconitic acid; 5: glucose.
(§3) In this context, compounds produced commercially with biological functions identified after research in the literature and present in the nematotoxic fractions of C. ensiformis were tested in bioassay against M. incognita juveniles (FIG. 9A).

J2 of M. incognita = assay: Recovery assay using distilled water (nematicidal vs nematostatic effect); assay type: in vivo
Protocol: as §1, §2, §3

Compound	nematotoxic effect on J2 ([1]; 80 μg/300 μL)	nematotoxic effect on J2 ([1]; 150 μg/300 μL)	% paralyzed nematodes ([1]; 0.125 g/L (of each compound))	J2 paralyzed ([1]; 80 μg/300 μL)	kind of effect confirmed by recovery assay (J2 of M. incognita; 80 μg/300 μL)	kind of effect confirmed by recovery assay (J2 of M. incognita; 150 μg/300 μL)	% paralyzed nematodes ([1]; 0.17 g/L (of each compound))	further results
CO[C@H]1[C@H](O)[C@@H](O)[C@@H](O)[C@H](O)[C@@H]1O [D-pinitol]	did not exhibit any toxic effect	did not exhibit any toxic effect						
O=C(O)/C=C(/CC(=O)O)C(=O)O [cis-aconitic, cis-aconitic acid]								nematicidal activity after the recovery assay (J2 of M. incognita; 150 μg/300 μL): 40%
N=C(N)NOCC[C@H](N)C(=O)O [L-canavanine]	did not exhibit any nematotoxic activity							juveniles remained paralyzed after the recovery assay (J2 of M. incognita; 105 μg/300 μL): 25%
O=C[C@H](O)[C@@H](O)[C@H](O)[C@H](O)CO [glucose]			0%					paralyzing of nematodes ([1]; solution 10% (W/V), 48 hours): paralyzing most of the nematodes; kind of activity confirmed by recovery assay (J2 of M. incognita; solution 10% (W/V)): nematostatic activity
COc1c2occc2cc2ccc(=O)oc12 [Xantotoxin]				87%	nematicidal effect	nematicidal effect		J2 paralyzed ([1]; 150 μg/300 μL): 87%
N[C@@H](Cc1c[nH]c2ccccc12)C(=O)O [L-triptofane]	not capable of affecting the J2	not capable of affecting the J2						
O=C(O)/C=C(\CC(=O)O)C(=O)O [trans-aconitic acid]			<11.12%	90%			11.12%	% of paralyzed nematodes [1]: 27.08%; nematicidal activity after the recovery assay (J2 of M. incognita; 150 μg/300 μL): 98%
N[C@@H](Cc1ccccc1)C(=O)O [L-phenylamnine]	not capable of affecting the J2	not capable of affecting the J2						
S-carboxymethylcisteine			<43.03%	about 90%	nematostatic effect	nematostatic effect	43.03%	J2 paralyzed ([1]; 150 μg/300 μL): about 90%
CCCCCCCCCCCCCCCC(=O)O [palmitic acid]			<7.66%		nematostatic effect	nematostatic effect	7.66%	% of paralyzed nematodes [1]: 33.86%
